# Assay: Plasma TPTD concentration and pharmacokinetics (Rat PTH IRMA Kit, non-compartmental model)
# Assay type: in vivo, rabbit
# Text: Seventeen female New Zealand White rabbits (Kbl:NZW) were purchased from Kitayama Labs (Nagano, Japan) and were allowed to acclimatize with free access to water and food for 6 days before use. Throughout the experimental study, the animals were housed individually under a 12-h light/dark cycle with free access to water, but their food intake was restricted to 120g /day (LRC4, standard diet for rabbits; Oriental Yeast, Tokyo, Japan). The animals at 6 months of age were divided into 5 groups and were subcutaneously injected with 20 or 40 μg/kg of TPTD once-daily (D20 group [n = 3] and D40 group [n = 3], 140 or 280 μg/kg of TPTD once-weekly (W140 group [n = 3] and W280 group [n = 4]) for four weeks (Table 1). For the high-dose administration of TPTD, the dosage in once-daily treatment was set at 40 μg/kg/day based on a previous study, while the dosage of once-weekly TPTD treatment was set at 280 μg/kg/week; thus, the cumulative dose of TPTD each week was the same with the two treatment frequencies. In the W140 and W280 groups, saline was administered every day, except for the days on which TPTD was administered. Saline injections were administered to control animals (C group, n = 4) once daily and to each group as a vehicle.
# […] The samples were centrifuged at 1600 x g, at 4°C for 10 minutes and plasma samples were collected in order to measure the concentration of TPTD. […]
# Teriparatide acetate was synthesized at Asahi Kasei Pharma Corporation (Tokyo, Japan) and was used as a standard substance. The teriparatide acetate concentration in the rabbit plasma was quantified using a Rat PTH IRMA Kit (Immutopics, Inc., San Clemente, CA) according to the manufacturer’s instructions. The pharmacokinetic parameters were calculated using a non-compartmental model (Phoenix WinNonlin; Pharsight, Mountain View, CA).
compound,measurement,setting,value
"CC[C@H](C)[C@H](NC(=O)[C@H](CCC(=O)O)NC(=O)[C@H](CO)NC(=O)[C@@H](NC(=O)[C@@H](N)CO)C(C)C)C(=O)N[C@@H](CCC(N)=O)C(=O)N[C@@H](CC(C)C)C(=O)N[C@@H](CCSC)C(=O)N[C@@H](Cc1cnc[nH]1)C(=O)N[C@@H](CC(N)=O)C(=O)N[C@@H](CC(C)C)C(=O)NCC(=O)N[C@@H](CCCCN)C(=O)N[C@@H](Cc1cnc[nH]1)C(=O)N[C@@H](CC(C)C)C(=O)N[C@@H](CC(N)=O)C(=O)N[C@@H](CO)C(=O)N[C@@H](CCSC)C(=O)N[C@@H](CCC(=O)O)C(=O)N[C@@H](CCCN=C(N)N)C(=O)N[C@H](C(=O)N[C@@H](CCC(=O)O)C(=O)N[C@@H](Cc1c[nH]c2ccccc12)C(=O)N[C@@H](CC(C)C)C(=O)N[C@@H](CCCN=C(N)N)C(=O)N[C@@H](CCCCN)C(=O)N[C@@H](CCCCN)C(=O)N[C@@H](CC(C)C)C(=O)N[C@@H](CCC(N)=O)C(=O)N[C@@H](CC(=O)O)C(=O)N[C@H](C(=O)N[C@@H](Cc1cnc[nH]1)C(=O)N[C@@H](CC(N)=O)C(=O)N[C@@H](Cc1ccccc1)C(=O)O)C(C)C)C(C)C [TPTD, Teriparatide]",time for plasma TPTD levels to return to the basal levels,all of the dosage regimens,≤ 3 h
same,plasma TPTD concentration relative to Cmax by 2h,"all regimens (D20, D40, W140, W280), 2h post-dose",less than 40 % of Cmax
same,level at 5 min,"female, New Zealand White (Kbl:NZW), rabbit, plasma, sc, 20 ug/kg, Day 1, 5 min, D20 (20 μg/kg sc once-daily), n=3, IRMA, mean",7.14 ng/mL
same,level at 0.25 h,"female, New Zealand White (Kbl:NZW), rabbit, plasma, sc, 20 ug/kg, Day 1, 15 min, D20 (20 μg/kg sc once-daily), n=3, IRMA, mean",14.9 ng/mL
same,level at 0.5 h,"female, New Zealand White (Kbl:NZW), rabbit, plasma, sc, 20 ug/kg, Day 1, 30 min, D20 (20 μg/kg sc once-daily), n=3, IRMA, mean",19.8 ng/mL
same,level at 1 h,"female, New Zealand White (Kbl:NZW), rabbit, plasma, sc, 20 ug/kg, Day 1, 1 hour, D20 (20 μg/kg sc once-daily), n=3, IRMA, mean",11.8 ng/mL
same,level at 2 h,"female, New Zealand White (Kbl:NZW), rabbit, plasma, sc, 20 ug/kg, Day 1, 2 hour, D20 (20 μg/kg sc once-daily), n=3, IRMA, mean",1.77 ng/mL
same,level at 5 min,"female, New Zealand White (Kbl:NZW), rabbit, plasma, sc, 20 ug/kg, Day 22, 5 min, D20 (20 μg/kg sc once-daily), n=3, IRMA, mean",7.06 ng/mL
same,level at 0.25 h,"female, New Zealand White (Kbl:NZW), rabbit, plasma, sc, 20 ug/kg, Day 22, 15 min, D20 (20 μg/kg sc once-daily), n=3, IRMA, mean",17 ng/mL
same,level at 0.5 h,"female, New Zealand White (Kbl:NZW), rabbit, plasma, sc, 20 ug/kg, Day 22, 30 min, D20 (20 μg/kg sc once-daily), n=3, IRMA, mean",24.6 ng/mL
same,level at 1 h,"female, New Zealand White (Kbl:NZW), rabbit, plasma, sc, 20 ug/kg, Day 22, 1 hour, D20 (20 μg/kg sc once-daily), n=3, IRMA, mean",20.5 ng/mL
same,level at 2 h,"female, New Zealand White (Kbl:NZW), rabbit, plasma, sc, 20 ug/kg, Day 22, 2 hour, D20 (20 μg/kg sc once-daily), n=3, IRMA, mean",3.8 ng/mL
same,level at 24 h,"female, New Zealand White (Kbl:NZW), rabbit, plasma, sc, 20 ug/kg, Day 22, 24 hour, D20 (20 μg/kg sc once-daily), n=3, IRMA, mean",0.13 ng/mL
same,level at 5 min,"female, New Zealand White (Kbl:NZW), rabbit, plasma, sc, 40 ug/kg, Day 1, 5 min, D40 (40 μg/kg sc once-daily), n=3, IRMA, mean",9.83 ng/mL
same,level at 0.25 h,"female, New Zealand White (Kbl:NZW), rabbit, plasma, sc, 40 ug/kg, Day 1, 15 min, D40 (40 μg/kg sc once-daily), n=3, IRMA, mean",23.6 ng/mL
same,level at 0.5 h,"female, New Zealand White (Kbl:NZW), rabbit, plasma, sc, 40 ug/kg, Day 1, 30 min, D40 (40 μg/kg sc once-daily), n=3, IRMA, mean",34.3 ng/mL
same,level at 1 h,"female, New Zealand White (Kbl:NZW), rabbit, plasma, sc, 40 ug/kg, Day 1, 1 hour, D40 (40 μg/kg sc once-daily), n=3, IRMA, mean",29.9 ng/mL
same,level at 2 h,"female, New Zealand White (Kbl:NZW), rabbit, plasma, sc, 40 ug/kg, Day 1, 2 hour, D40 (40 μg/kg sc once-daily), n=3, IRMA, mean",10.6 ng/mL
same,level at 5 min,"female, New Zealand White (Kbl:NZW), rabbit, plasma, sc, 40 ug/kg, Day 22, 5 min, D40 (40 μg/kg sc once-daily), n=3, IRMA, mean",10.3 ng/mL
same,level at 0.25 h,"female, New Zealand White (Kbl:NZW), rabbit, plasma, sc, 40 ug/kg, Day 22, 15 min, D40 (40 μg/kg sc once-daily), n=3, IRMA, mean",32.7 ng/mL
same,level at 0.5 h,"female, New Zealand White (Kbl:NZW), rabbit, plasma, sc, 40 ug/kg, Day 22, 30 min, D40 (40 μg/kg sc once-daily), n=3, IRMA, mean",54 ng/mL
same,level at 1 h,"female, New Zealand White (Kbl:NZW), rabbit, plasma, sc, 40 ug/kg, Day 22, 1 hour, D40 (40 μg/kg sc once-daily), n=3, IRMA, mean",49.2 ng/mL
same,level at 2 h,"female, New Zealand White (Kbl:NZW), rabbit, plasma, sc, 40 ug/kg, Day 22, 2 hour, D40 (40 μg/kg sc once-daily), n=3, IRMA, mean",14 ng/mL
same,level at 5 min,"female, New Zealand White (Kbl:NZW), rabbit, plasma, sc, 140 ug/kg, Day 1, 5 min, W140 (140 μg/kg sc once-weekly), n=3, IRMA, mean",38 ng/mL
same,level at 0.25 h,"female, New Zealand White (Kbl:NZW), rabbit, plasma, sc, 140 ug/kg, Day 1, 15 min, W140 (140 μg/kg sc once-weekly), n=3, IRMA, mean",85.4 ng/mL
same,level at 0.5 h,"female, New Zealand White (Kbl:NZW), rabbit, plasma, sc, 140 ug/kg, Day 1, 30 min, W140 (140 μg/kg sc once-weekly), n=3, IRMA, mean",132 ng/mL
same,level at 1 h,"female, New Zealand White (Kbl:NZW), rabbit, plasma, sc, 140 ug/kg, Day 1, 1 hour, W140 (140 μg/kg sc once-weekly), n=3, IRMA, mean",121 ng/mL
same,level at 2 h,"female, New Zealand White (Kbl:NZW), rabbit, plasma, sc, 140 ug/kg, Day 1, 2 hour, W140 (140 μg/kg sc once-weekly), n=3, IRMA, mean",50.4 ng/mL
same,level at 5 min,"female, New Zealand White (Kbl:NZW), rabbit, plasma, sc, 140 ug/kg, Day 22, 5 min, W140 (140 μg/kg sc once-weekly), n=3, IRMA, mean",33.5 ng/mL
same,level at 0.25 h,"female, New Zealand White (Kbl:NZW), rabbit, plasma, sc, 140 ug/kg, Day 22, 15 min, W140 (140 μg/kg sc once-weekly), n=3, IRMA, mean",124 ng/mL
same,level at 0.5 h,"female, New Zealand White (Kbl:NZW), rabbit, plasma, sc, 140 ug/kg, Day 22, 30 min, W140 (140 μg/kg sc once-weekly), n=3, IRMA, mean",202 ng/mL
same,level at 1 h,"female, New Zealand White (Kbl:NZW), rabbit, plasma, sc, 140 ug/kg, Day 22, 1 hour, W140 (140 μg/kg sc once-weekly), n=3, IRMA, mean",147 ng/mL

# — article PMC5386260, “Acute development of cortical porosity and endosteal naïve bone formation from the daily but not weekly short-term administration of PTH in rabbit” (PLoS ONE, 2017)
